Here are results for five molecules from US11691992B2 (Anacor Pharmaceuticals, Inc., priority 2017, dated 2023).

The subject of assay [1] is T. cruzi Tulahuen strain C2C4 containing the β-galactosidase (Lac Z) gene in rat skeletal myoblasts (L-6 cells). As to the kind of experiment: Trypanosoma cruzi C2C4 screening assay. In kind it is cell-based. On the procedure: Example 113: Trypanosoma cruzi C2C4 Screening Assay Procedure
Rat skeletal myoblasts (L-6 cells) were seeded in 96-well microtiter plates at 2×10^3 cells/well in 100 μL RPMI 1640 medium with 10% FBS and 2 mM L-glutamine. After 24 h the medium was removed and replaced by 100 μL per well containing 5×10^3 trypomastigote forms of T. cruzi Tulahuen strain C2C4 containing the β-galactosidase (Lac Z) gene (Buckner, et al., Antimicrobial Agents and Chemotherapy, 40: 2592-2597 (1996)). After 48 h the medium was removed from the wells and replaced by 100 μL fresh medium with or without a serial drug dilution of the seven 3-fold dilution steps covering a range from 90 to 0.123 μg/mL. After 96 h of incubation the plates were inspected under an inverted microscope to assure growth of the controls and sterility. The substrate (50 μL) chlorophenol red-β-D-galactopyranoside (CPRG, Roche Diagnostics, Ltd) in 0.25% Nonidet P-40/PBS was added to all wells and a color reaction developed within 2-6 h which was read photometrically at 540 nm. Data were transferred into the graphic program Softmax Pro (Molecular Devices), which calculated IC50 values.

The subject of assay [2] is STIB719/ILRAD560 T. vivax (drug sensitive) strain. As to the kind of experiment: Ex vivo Alamar Blue 48 h drug sensitivity assay for T. vivax. It is filed as cell-based. The conditions noted are these: Trypanosoma vivax, ex vivo bloodstream forms from mouse, 45 hrs + 3 hrs resazurin, read-out: IC50: I Hypoxanthine Incorporation T. vivax STIB 719/ILRA D 560, 2 d. As to the method:
Example 109. Ex Vivo Alamar Blue 48 h Drug Sensitivity Assay for T. vivax
[…] Test compounds were prepared as 10 mg/mL DMSO stocks for each assay run. Compounds were assayed in at least three separate, independent test runs and an 11-point dilution curve was used to determine the IC50 values. Bloodstream form trypanosomes were propagated and harvested from a highly parasitemic mouse (via cardiac puncture) and were incubated with test compounds for 45 hrs at 37° C. in a humidified atmosphere containing 5% CO2, supported in HMI media containing 20% bovine serum. […] Plates were then read using a fluorescent plate reader (Spectramax, Gemini XS, Bucher Biotec, Basel, Switzerland) using an excitation wavelength of 536 nm and an emission wavelength of 588 nm. Data points were averaged to generate sigmoidal dose-response curves and IC50 values were determined using Softmax Pro 5.2 software.

Setting [3] is: L6, in L-6 cells, 96 h, CPRG, read-out: SCYNEXIS IC50: I Org. Growth T. cruzi Tulahuen C2C4 Lac Z, 4 d.
[4] abbreviates: L6, 96 h, read-out: SCYNEXIS IC50: I Org. Growth T. cruzi Tulahuen C2C4 Lac Z, 4 d [uM].

Like-named read-outs stand apart in the source and are kept apart here.

In the case of `O=C(Nc1ccc2c(c1)B(O)OC2)c1cn(-c2ccc(F)cc2)nn1` [Example 60, 1-(4-Fluorophenyl)-N-(1-hydroxy-1,3-dihydrobenzo[c][1,2]oxaborol-6-yl)-1H-1,2,3-triazole-4-carboxamide], the IC50 in assay [1] (setting [3]) lay within 0.06 to 0.1 µM; in assay [2] it was 0.201 to 0.5 µM.

For the molecule `O=C(Nc1ccc2c(c1)B(O)OC2)c1cn(-c2ccccn2)nn1` [Example 61, N-(1-hydroxy-1,3-dihydrobenzo[c][1,2]oxaborol-6-yl)-1-(pyridin-2-yl)-1H-1,2,3-triazole-4-carboxamide], the IC50 in assay [1] (setting [3]) is under 0.06 µM. `O=C(Nc1ccc2c(c1)B(O)OC2)c1nnn(-c2ccccc2)c1C(F)(F)F` [Example 68, N-(1-hydroxy-1,3-dihydrobenzo[c][1,2]oxaborol-6-yl)-1-phenyl-5-(trifluoromethyl)-1H-1,2,3-triazole-4-carboxamide]: the IC50 in assay [1] (setting [4]) was 0.11 to 1 µM. With `Cc1c(C(=O)Nc2ccc3c(c2)B(O)OC3)nnn1-c1ccccn1` [Example 84, N-(1-hydroxy-1,3-dihydrobenzo[c][1,2]oxaborol-6-yl)-5-methyl-1-(pyridin-2-yl)-1H-1,2,3-triazole-4-carboxamide], the IC50 in assay [1] (setting [3]) is under 0.06 µM.

As for `Cc1c(C(=O)Nc2ccc3c(c2)B(O)OC3)nnn1-c1ccccc1` [Example 89, A-(1-hydroxy-1,3-dihydrobenzo[c][1,2]oxaborol-6-yl)-5-methyl-1-phenyl-1H-1,2,3-triazole-4-carboxamide], in assay [1] (setting [4]), the IC50 is under 0.06 µM.
